± gives the expanded uncertainty stated by the source.
Experiment: molar heat capacity at constant pressure; mn = molality of the nth substance listed, in mol/kg
Conditions: 100 kPa, Liquid, Large sample (1 g) DSC

[Cl-].[Na+] [sodium chloride] + O
molar heat capacity at constant pressure [J/K/mol]
Conditions | m1 = 0.2038 | m1 = 0.3971 | m1 = 1.032
278.15 K | 75.59 ± 1.2 | 75.32 ± 1.2 | 74.79 ± 1.2
283.15 K | 75.42 ± 1.2 | 75.21 ± 1.2 | 74.42 ± 1.2
288.15 K | 75.27 ± 1.2 | 75.07 ± 1.2 | 74.37 ± 1.2
293.15 K | 75.25 ± 1.2 | 74.95 ± 1.2 | 74.28 ± 1.2
298.15 K | 75.23 ± 1.2 | 74.91 ± 1.2 | 74.26 ± 1.1
303.15 K | 75.22 ± 1.2 | 74.9 ± 1.2 | 74.22 ± 1.1
308.15 K | 75.2 ± 1.2 | 74.87 ± 1.2 | 74.21 ± 1.1
313.15 K | 75.18 ± 1.2 | 74.87 ± 1.2 | 74.2 ± 1.1
318.15 K | 75.19 ± 1.2 | 74.88 ± 1.2 | 74.21 ± 1.1
323.15 K | 75.2 ± 1.2 | 74.96 ± 1.2 | 74.26 ± 1.1
328.15 K | 75.21 ± 1.2 | 74.99 ± 1.2 | 74.27 ± 1.2
333.15 K | 75.25 ± 1.2 | 75.03 ± 1.2 | 74.28 ± 1.2
338.15 K | 75.27 ± 1.2 | 75.11 ± 1.2 | 74.32 ± 1.2
343.15 K | 75.38 ± 1.2 | 75.21 ± 1.2 | 74.34 ± 1.2
348.15 K | 75.47 ± 1.2 | 75.26 ± 1.2 | 74.45 ± 1.2

Source: the NIST ThermoML archive (doi:10.1016/j.jct.2018.10.027)
